This passage reports pIC50 results from ChEMBL document CHEMBL3045996, “Use of classical and 3-D QSAR to examine the hydration state of juvenile hormone esterase inhibitors” (Bioorg Med Chem, 2003).

A short description of this experiment: Inhibition of juvenile hormone esterase.
In the case of `O=C(CSc1ccccc1Cl)C(F)(F)F`, the negative logarithm of the IC50 (pIC50) (in general, −log10 of the IC50, conventionally taken in molar units) turned out to be 5.68.
`CCCCCCCC/C=C/C(=O)C(F)(F)F` came in with a negative-log IC50 (pIC50) of 6.06.
Next, `Cc1ccccc1CSCC(=O)C(F)(F)F`: 4.9; `CCCCCCCC(C)SC(C)C(=O)C(F)(F)F` (configuration not stated): 8.07; `CC(C)=CCC/C(C)=C\CCSCC(=O)C(F)(F)F`: 8.51.
`O=C(CSc1ccc(Cl)cc1)C(F)(F)F` had a pIC50 of 5.89.
`CCCCCCCC(CCC)SCC(=O)C(F)(F)F` (configuration not stated): the pIC50 was 7.89.
The same measure for `CCCCCCCCCCCCS(=O)(=O)CC(=O)C(F)(F)F`: 7.21.
The same measure for `COc1cccc(SCC(=O)C(F)(F)F)c1`: 5.89.
The same measure for `O=C(CSc1ccc(Br)cc1)C(F)(F)F`: 6.39; for `Cc1cccc(SCC(=O)C(F)(F)F)c1`: 6.89.
`O=C(CSc1ccccc1)C(F)(F)F` yielded a negative logarithm of the IC50 (pIC50) of 5.06.
The same measure for `COC(C)(C)CCC/C(C)=C\CCSCC(=O)C(F)(F)F`: 8.49.
As to `CCCCCCCCCCS(=O)(=O)CC(=O)C(F)(F)F`, the negative-log IC50 (pIC50) is reported as 7.36.
For `CN(C)c1ccc(SCC(=O)C(F)(F)F)cc1`, the negative logarithm of the IC50 (pIC50) is given as 7.05.
The same measure for `CCCCCCCCCCCCCC(=O)C(F)(F)F`: 5.41; for `CCCCCCCSCC(=O)C(F)(F)F`: 8.09; for `O=C(CSC1CCCC1)C(F)(F)F`: 5.01.
The same measure for `CCCCCCCCCSCC(=O)C(F)(F)F`: 8.43; for `O=C(CSc1c(Cl)c(Cl)c(Cl)c(Cl)c1Cl)C(F)(F)F`: 7.8; for `CCCCCCCCCCCCSCC(=O)C(F)(F)F`: 7.82.
The same measure for `Cc1ccccc1SCC(=O)C(F)(F)F`: 5.37; for `O=C(CSc1ccccc1Br)C(F)(F)F`: 6.17; for `CCCCCCCCSC(C(=O)C(F)(F)F)c1ccccc1` (configuration not stated): 4.09.
Compound `Cc1cc(C)cc(SCC(=O)C(F)(F)F)c1` displayed a pIC50 of 5.74.
The same measure for `CC(C)CCSCC(=O)C(F)(F)F`: 5.6; for `O=C(CS(=O)(=O)c1ccccc1)C(F)(F)F`: 3.98; for `CCCCCCCCCCCCCCC(=O)C(F)(F)F`: 5.14.
Next, `CCCCCCCC[S+]([O-])CC(=O)C(F)(F)F` (configuration not stated): 7.37.
The same measure for `CCCCCCCCCCCSCC(=O)C(F)(F)F`: 7.37; for `CC(C)=CCCC(C)CCSCC(=O)C(F)(F)F` (configuration not stated): 8.35.
`CCCCCC/C=C\C(=O)C(F)(F)F` registered a negative-log IC50 (pIC50) of 4.1.
Next, `CCCCCCCCCCCCC#CC(=O)C(F)(F)F`: 8; `CC(CCC1OC1(C)C)CC1OC1c1ccc(C(=O)C(F)(F)F)cc1` (configuration not stated): 3.3; `O=C(CSc1ccc(Cl)c(Cl)c1)C(F)(F)F`: 7.7.
Next, `O=C(C#Cc1ccccc1)C(F)(F)F`: 5.27; `CCCCC(C)(C)CC(C)CSCC(=O)C(F)(F)F` (configuration not stated): 7.98; `O=C(CSc1cc(Cl)ccc1Cl)C(F)(F)F`: 7.64.
The same measure for `CCCCCCCCSC(CCC)C(=O)C(F)(F)F` (configuration not stated): 4.09; for `CCCCCSCC(=O)C(F)(F)F`: 6.11.
Turning to `CCCCCCCCCCCCCCSCC(=O)C(F)(F)F`, the negative logarithm of the IC50 (pIC50) is listed as 6.4.
Next, `CCCCCCCCCCCCCCCCCCSCC(=O)C(F)(F)F`: 6.3.
Next, `O=C(CSc1c(F)c(F)c(F)c(F)c1F)C(F)(F)F`: 4.96; `O=C(CSc1ccc(F)cc1)C(F)(F)F`: 5.08; `CCCCCCC#CC(=O)C(F)(F)F`: 6.4.
Next, `CCCCCCCC(C)SCC(=O)C(F)(F)F` (configuration not stated): 9.77; `O=C(CSc1cc(Cl)c(Cl)cc1Cl)C(F)(F)F`: 7.49.
Compound `O=C(CSc1c(Cl)cccc1Cl)C(F)(F)F` registered a pIC50 of 7.11.
Next, `O=C(CSCCCc1ccccc1)C(F)(F)F`: 6.77; `CCCCCC/C=C/C(=O)C(F)(F)F`: 5.14.
Next, `O=C(CSCc1ccccc1)C(F)(F)F`: 4.82; `CCCCCCCCCCC(=O)C(F)(F)F`: 6.66.
Next, `O=C(CSCc1ccccc1Cl)C(F)(F)F`: 5.18; `Cc1cccc(CSCC(=O)C(F)(F)F)c1`: 5.1.
Regarding `Cc1ccc(SCC(=O)C(F)(F)F)cc1C`, the pIC50 turned out to be 7.96.
The same measure for `O=C(CSc1ccccc1Oc1ccccc1)C(F)(F)F`: 6.66; for `O=C(CSc1ccccc1Nc1ccccc1)C(F)(F)F`: 7.52.
The same measure for `Cc1cc(SCC(=O)C(F)(F)F)ccc1Br`: 7.89.
Next, `O=C(CSc1ccc(O)cc1)C(F)(F)F`: 5.21; `CCCCCCCC(CCCC)SCC(=O)C(F)(F)F` (configuration not stated): 7.16; `O=C(CSc1cccc(C(F)(F)F)c1)C(F)(F)F`: 5.6.
`CCCCCCCCSCC(=O)C(F)(F)F`: the pIC50 is 8.62.
`O=C(CSC1CCCCC1)C(F)(F)F` registered a negative logarithm of the IC50 (pIC50) of 5.28.
Next, `COc1ccccc1SCC(=O)C(F)(F)F`: 5.7; `CC(C)(C)c1ccc([S+]([O-])CC(=O)C(F)(F)F)cc1` (configuration not stated): 7.64; `CCCCCCCCCCCCc1ccc(CSCC(=O)C(F)(F)F)cc1`: 5.8.
The compound `Cc1ccc(SCC(=O)C(F)(F)F)c(C)c1` had a negative-log IC50 (pIC50) of 6.04.
The same measure for `Cc1ccc(C)c(SCC(=O)C(F)(F)F)c1`: 6.77.
`CCCCCCCCC#CC(=O)C(F)(F)F` came in with a negative-log IC50 (pIC50) of 7.24.
Compound `O=C(CS(=O)(=O)CCc1ccccc1)C(F)(F)F` had a pIC50 of 6.31.
Next, `O=C(CSCCc1ccccc1)C(F)(F)F`: 5.49.
The same measure for `CCCCCCCCC(=O)C(F)(F)F`: 5.17; for `COC(C)(C)CCCC(C)CCSCC(=O)C(F)(F)F` (configuration not stated): 8.12.
The same measure for `Cc1cccc(C)c1SCC(=O)C(F)(F)F`: 6.92; for `COc1ccc(C(=O)C(F)(F)F)cc1`: 4.15.
For `CCCCCCCCCCCCC(=O)C(F)(F)F`, the pIC50 is listed as 7.
On to `O=C(CSc1cccc(Cl)c1)C(F)(F)F`, for which the negative-log IC50 (pIC50) amounted to 6.4.
Consider `O=C(C[S+]([O-])c1ccccc1)C(F)(F)F` (configuration not stated), for which the pIC50 is 4.21.
For the compound `CCCCCCCCSC(CC)C(=O)C(F)(F)F` (configuration not stated), the pIC50 turned out to be 5.32.
Next, `CCCCCCCCS(=O)(=O)CC(=O)C(F)(F)F`: 6.9; `CCCCCCCCCCCCCSCC(=O)C(F)(F)F`: 7.35; `O=C(CSc1ccccc1CO)C(F)(F)F`: 5.15.
Next, `O=C(c1ccccc1)C(F)(F)F`: 3.04; `O=C(CSCc1ccc(Cl)cc1)C(F)(F)F`: 5.34.
Compound `O=C(CSc1cccc(Br)c1)C(F)(F)F` returned a negative-log IC50 (pIC50) of 6.06.
Next, `CCCCCCCC(CC)SCC(=O)C(F)(F)F` (configuration not stated): 8.24; `CCCCCCCCCCCCCCCCCC(=O)C(F)(F)F`: 4.85.
The same measure for `CC(C)=CCCC(C)C/C=C\c1ccc(C(=O)C(F)(F)F)cc1` (configuration not stated): 6.7; for `COc1ccc(SCC(=O)C(F)(F)F)cc1`: 5.89; for `CCCCCCCC(=O)C(F)(F)F`: 4.17.
`CCCCCCCCSC(C)C(=O)C(F)(F)F` (configuration not stated): the pIC50 was 9.06.
Next, `CCCCCCC(=O)C(F)(F)F`: 3.66; `O=C(CSc1c(F)c(F)cc(F)c1F)C(F)(F)F`: 5.92; `CCCCC#CC(=O)C(F)(F)F`: 5.49.
The same measure for `Cc1ccc(CSCC(=O)C(F)(F)F)cc1`: 5.2; for `CCCCCCCCCCSCC(=O)C(F)(F)F`: 7.7.
Turning to `CC(C)c1ccccc1SCC(=O)C(F)(F)F`, the pIC50 turned out to be 6.47.
The same measure for `CC(C)(C)SCC(=O)C(F)(F)F`: 5.3.
The same measure for `CCCCCCCCCCC#CC(=O)C(F)(F)F`: 7.57; for `CCC(C)CSCC(=O)C(F)(F)F` (configuration not stated): 5.8.
Turning to `CCCCCCCCCCCCCCCCSCC(=O)C(F)(F)F`, the pIC50 is 6.2.
Next, `CC(C)(C)c1ccc(SCC(=O)C(F)(F)F)cc1`: 8.12.
The same measure for `Cc1cc(C(C)(C)C)ccc1SCC(=O)C(F)(F)F`: 8.52; for `CCCCSCC(=O)C(F)(F)F`: 5.82.
The same measure for `CC(C/C=C\c1ccc(C(=O)C(F)(F)F)cc1)CCC1OC1(C)C` (configuration not stated): 6.52; for `CCc1ccccc1SCC(=O)C(F)(F)F`: 5.54.
With `Cc1ccc(SCC(=O)C(F)(F)F)cc1`, the pIC50 is reported as 6.96.
